# Source: publication PMC6891444, “Immune Checkpoint PD-1/PD-L1 CTLA-4/CD80 are Blocked by Rhus verniciflua Stokes and its Active Compounds” (Molecules, 2019)
# Experiments:
# CTLA-4/CD80 interaction = molecular target: T1, CTLA-4/CD80 interaction (Homo sapiens, UniProt P16410); experiment: CTLA-4/CD80 competitive ELISA (Inhibitor Screening Assay Kit); format: binding; conditions: mean of three independent replicates, read-out: IC50, CTLA-4/CD80 blocking effect
# T1 construct: purchased BPS Bioscience #71149 (CTLA-4); #71114 (biotinylated CD80)
# T1 sequence (P16410 37-162 limits assumed): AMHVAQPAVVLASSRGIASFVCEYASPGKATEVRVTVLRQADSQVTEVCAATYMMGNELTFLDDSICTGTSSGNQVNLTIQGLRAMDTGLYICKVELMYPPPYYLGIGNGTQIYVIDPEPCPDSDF
# Description: Competitive ELSIA was performed using a PD–1/PD-L1 or CTLA-4/CD80 Inhibitor Screening Assay Kit, according to the supplier’s instructions. An aliquot of 1 μg/mL recombinant human PD-L1 (BPS Bioscience, #71104) or CTLA-4 (BPS Bioscience, #71149) were coated onto a 96-well plate overnight. Plates were washed with phosphate-buffered saline (PBS) containing 0.1% Tween (PBS-T), blocked for 1 h at room temperature with PBS-T containing 2% (w/v) bovine serum albumen, and washed again. After washing, vehicle or test samples were added, and the reaction continued for 1 h. As a positive control, PD-L1 inhibitor C1 or anti-CTLA-4 neutralizing antibody were used. Biotinylated hPD–1 (BPS Bioscience, #71109) or biotinylated hCD80 (BPS Bioscience, #71114) was added to each well, and plates were incubated for 2 h at room temperature. After three washes with PBS-T, diluted streptavidin-horseradish peroxidase (HRP) was added to each well, and plates were reacted for 1 h while shaking at low speed. After the reaction, plates were washed three times with PBS-T, and HRP substrates A and B were added. Relative chemiluminescence was measured on a SpectraMax L Luminometer (Molecular Devices, San Jose, California, USA) and expressed as the relative binding activity. The results were normalized to the relative percentage of the vehicle control group. Half-maximal inhibitory concentration (IC50) was calculated using Prism “log[inhibitor] vs. normalized response” equation.
# PD-1/PD-L1 interaction = molecular target: T2, PD-1/PD-L1 interaction (Homo sapiens, UniProt Q9NZQ7); experiment: PD-1/PD-L1 competitive ELISA (Inhibitor Screening Assay Kit); format: binding; conditions: mean of three independent replicates, read-out: IC50, PD-1/PD-L1 blocking effect
# T2 construct: purchased BPS Bioscience #71104 (PD-L1); #71109 (biotinylated PD-1)
# T2 sequence (Q9NZQ7 19-239 limits assumed): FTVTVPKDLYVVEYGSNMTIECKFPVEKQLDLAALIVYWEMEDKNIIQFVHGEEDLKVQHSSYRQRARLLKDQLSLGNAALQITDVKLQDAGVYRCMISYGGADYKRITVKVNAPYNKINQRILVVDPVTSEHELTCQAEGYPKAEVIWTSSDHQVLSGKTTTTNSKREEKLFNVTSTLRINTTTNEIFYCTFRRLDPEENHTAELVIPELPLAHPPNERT
# Description: Competitive ELSIA was performed using a PD–1/PD-L1 or CTLA-4/CD80 Inhibitor Screening Assay Kit, according to the supplier’s instructions. An aliquot of 1 μg/mL recombinant human PD-L1 (BPS Bioscience, #71104) or CTLA-4 (BPS Bioscience, #71149) were coated onto a 96-well plate overnight. Plates were washed with phosphate-buffered saline (PBS) containing 0.1% Tween (PBS-T), blocked for 1 h at room temperature with PBS-T containing 2% (w/v) bovine serum albumen, and washed again. After washing, vehicle or test samples were added, and the reaction continued for 1 h. As a positive control, PD-L1 inhibitor C1 or anti-CTLA-4 neutralizing antibody were used. Biotinylated hPD–1 (BPS Bioscience, #71109) or biotinylated hCD80 (BPS Bioscience, #71114) was added to each well, and plates were incubated for 2 h at room temperature. After three washes with PBS-T, diluted streptavidin-horseradish peroxidase (HRP) was added to each well, and plates were reacted for 1 h while shaking at low speed. After the reaction, plates were washed three times with PBS-T, and HRP substrates A and B were added. Relative chemiluminescence was measured on a SpectraMax L Luminometer (Molecular Devices, San Jose, California, USA) and expressed as the relative binding activity. The results were normalized to the relative percentage of the vehicle control group. Half-maximal inhibitory concentration (IC50) was calculated using Prism “log[inhibitor] vs. normalized response” equation. All results are presented as the mean of three independent biological replicates. * p < 0.05, ** p < 0.01, *** p < 0.001, compared with the vehicle control group.
SMILES,IC50 (CTLA-4/CD80 interaction),IC50 (PD-1/PD-L1 interaction)
"O=C1C[C@@H](c2ccc(O)c(O)c2)Oc2cc(O)cc(O)c21 [Compound 7, eriodictyol]",,0.04 µM
"O=c1c(O)c(-c2ccc(O)c(O)c2)oc2cc(O)ccc12 [Compound 9, fisetin]",,0.04 µM
"O=C1C[C@@H](c2ccc(O)cc2)Oc2cc(O)ccc21 [Compound 13, liquiritigenin]",,11.8 µM
"O=c1c(O)c(-c2ccc(O)c(O)c2)oc2cc(O)cc(O)c12 [Compound 18, quercetin]",,5.71 µM

# Further lines, results first:
IC50 (CTLA-4/CD80 interaction),IC50 (PD-1/PD-L1 interaction),SMILES
4.51 µM,,"O=C(O)c1ccc(O)c(O)c1 [Compound 2, protocatechuic acid]"
35.5 µM,,"O=C1c2c(O)cc(O)cc2OC(c2ccc(O)c(O)c2)C1O (stereo not shown) [Compound 5, taxifolin]"
10 µM,,"O=C(O)/C=C/c1ccc(O)c(O)c1 [Compound 19, caffeic acid]"
